US20190307843A1, “SINGLE DOSE METHODS FOR PREVENTING AND TREATING FUNGAL INFECTIONS” (Cidara Therapeutics, Inc., priority 2016, published 2019)
Starred links: 1 amine or outer side, 2 acyl side, 3 side chain; linkers in the order of their positions; H or OH if unused. Positions of bridges follow the written chain, without caps; N, C: chain ends. Non-standard residues stand in square brackets, D forms with d. Residues, ends and D or L forms follow the SMILES beside them. *: point of attachment. Orn(4R-OH,5R-OCH2CH2NMe3+) = C[N+](C)(C)CCO[C@@H](N[*:3])[C@H](O)C[C@H](N[*:1])C(=O)[*:2]; pTerphenylCO(4''-OnC5H11) = CCCCCOc1ccc(-c2ccc(-c3ccc(C(=O)*)cc3)cc2)cc1; hTyr(3S-OH,4S-OH) = N[C@H](C(=O)O)[C@H](O)[C@@H](O)c1ccc(O)cc1; Pro(3S-OH,4S-Me) = C[C@H]1CN[C@H](C(=O)O)[C@H]1O; Hyp = O=C(O)[C@@H]1C[C@@H](O)CN1

Tests used:
[1] = test system: Aspergillus fumigatus (ATCC 13073); assay: Neutropenic mouse aspergillosis model, survival; type: in vivo; settings: CD101 2 mg/kg IV or IP one dose; 10 days
C. auris = assay: Murine model of disseminated candidiasis, C. auris infection, kidney CFU and survival; type: in vivo, Candida auris; settings: CD101 20 mg/kg IP
[2] = test system: C. albicans SC-5314 biofilms; assay: Mature phase biofilms (treatment), XTT metabolic activity and CSLM; type: cell-based, Candida albicans
[3] = Pharmacokinetic profile in female rats, 10 mg/kg IV and SC; settings: rat, in vivo
Text: The pharmacokinetic (PK) profile of CD101 in female rats (three per group) was characterized.

[4] = test system: A. fumigatus strain AF293; assay: Murine model of pulmonary aspergillosis (Example 13), terminal lung burden; type: in vivo, Aspergillus fumigatus
Description: (§1) A secondary endpoint for the study was terminal lung tissue burden. Immediately following confirmation of death, carcasses were frozen at −20° C. prior to tissue dissection and processing. The frozen carcasses were thawed at room temperature and the lungs removed and placed into pre-weighed bead-beating tubes containing 2 mL of PBS and subjected to mechanical disruption. Organ homogenates were diluted further in PBS and quantitatively cultured for A. fumigatus onto SABC and incubated at 30° C. for 24-48 hours. In addition, a 300 μL aliquot of the undiluted lung tissue homogenate was stored at −80° C. for possible optional assessment of burden by qPCR.

[5] = test system: A. fumigatus clinical isolates; assay: CLSI broth microdilution (M38-A2) MEC, SENTRY clinical isolates; type: cell-based, Aspergillus fumigatus; settings: 153 A. fumigatus clinical isolates, 2014 and 2015
Text: (§2) The in vitro activity of CD101 was previously evaluated as part of the SENTRY international surveillance program using CLSI broth microdilution methodology (M38-A2, M27-A3; Pfaller, et al 2017). […] These susceptibility data were then compared graphically to CD101 plasma concentrations from studies in healthy adults, adjusted for plasma protein binding. Nonclinical efficacy in a murine model of Pneumocystis pneumonia were also considered to evaluate CD101 doses for clinical investigation of antifungal prophylaxis.
(§3) The in vitro activity of CD101 was evaluated against 153 A. fumigatus clinical isolates collected as part of the 2014 and 2015 JMI international SENTRY surveillance program. Susceptibility was determined by measuring the minimal effective concentration (MEC) values in accordance with CLSI broth microdilution guidelines (M38-A2). In vivo tissue distribution of CD101 in SD rats (N=3/time up to 5 d) after a 5 mg/kg IV CD101 dose. Plasma/tissue concentrations were measured by LC-MS/MS.

Pneumocystis spp. = assay: Murine model of Pneumocystis pneumonia; settings: in vivo
Text: as §2

[6] = In vivo tissue distribution in SD rats after 5 mg/kg IV; settings: Sprague-Dawley, rat
Description: as §3

A. fumigatus ATCC 13073 = assay: Disseminated aspergillosis, treatment, neutropenic ICR mice (Example 17); type: in vivo, Aspergillus fumigatus
Text: Survival monitored for ≥10 days.

A. fumigatus AF293 [7] = assay: Pulmonary aspergillosis, prophylaxis, neutropenic ICR mice (Examples 17, 18), survival; type: in vivo, Aspergillus fumigatus
Description: Intranasal infection with A. fumigatus AF293 (10^5 CFU/mouse) on Day 0. Prophylaxis CD101 as a single dose (IP; 5, 10, 20 mg/kg) or posaconazole (PO; 2 and 10 mg/kg) 1 day prior to infection. Survival monitored for 10 days.
Intranasal challenge with A. fumigatus AF293 (10^5 CFU/mouse) was initiated on Day 0 and prophylaxis with CD101 as a single dose (IP; 5, 10, 20 mg/kg) or posaconazole (PO; 2 and 10 mg/kg) was started 1 day prior to infection. Survival was monitored for 10 days.

A. fumigatus AF293 [8] = assay: Murine model of pulmonary aspergillosis (Example 19), terminal lung burden; type: in vivo, Aspergillus fumigatus
Description: as §1, with “temperature,” for “temperature and”, “hours.” for “hours. In addition, a 300 μL aliquot of the undiluted lung tissue homogenate was stored at −80° C. for possible optional assessment of burden by qPCR.”
2. Lung tissue burden data were analysed using the non-parametric Kruskal-Wallis test and if this was statistically significant all pairwise comparisons were analyzed (Conover-Inman).

A. fumigatus AF293 [9] = assay: Murine model of pulmonary aspergillosis (Example 19), survival; settings: for survival time post infection, range / Mean Survival / Median Survival: 1 day pre-infection; for mice surviving to the end of the study: 6/treatment group, 10 days
[10] = test system: Candida albicans ATCC SC5314; assay: Prophylaxis, neutropenic ICR mouse candidiasis model, kidney CFU; settings: for clearance of kidney CFU: 24 hours post-challenge
[11] = CD101 20 mg/kg IP once, 20 mg/kg
[12] = CD101 60 mg/kg IP once, 60 mg/kg

CCCCCOc1ccc(-c2ccc(-c3ccc(C(=O)N[C@H]4C[C@@H](O)[C@@H](OCC[N+](C)(C)C)NC(=O)[C@@H]5[C@@H](O)[C@@H](C)CN5C(=O)[C@H]([C@@H](C)O)NC(=O)[C@H]([C@H](O)[C@@H](O)c5ccc(O)cc5)NC(=O)[C@@H]5C[C@@H](O)CN5C(=O)[C@H]([C@@H](C)O)NC4=O)cc3)cc2)cc1 [CD101] ({pTerphenylCO(4''-OnC5H11)}-[Orn(4R-OH,5R-OCH2CH2NMe3+)]T[Hyp][hTyr(3S-OH,4S-OH)]T[Pro(3S-OH,4S-Me)]; lactam 1-C)
survival vs vehicle [1]: significantly longer survival than vehicle | percent survival at the end of the study (C. auris; 2 doses, Day 14): 80% | average reduction in kidney CFU compared to fluconazole, amphotericin B, and vehicle treated groups (C. auris; Day 1 and Day 4, Day 8): 3 log | metabolic activity (XTT) of mature biofilms ([2]; CD101 0.25 and 1 μg/ml, 24 h, vs untreated): significantly less metabolic activity | thickness of biofilms ([2]; CD101, untreated control 43 μm): 24 μm | Tmax ([3]; SC administration): 8 to 24 h | half-life ([3]; SC, read-out: t½ (converted)): 48 h | bioavailability ([3]; sc): 97% | Group Geometric mean (lung burden) ([4]; CD101 5 mg/kg IP Day 0): 5.65 × 10^4 CFU/g | Log10 Group Geometric mean (lung burden) ([4]; CD101 5 mg/kg IP Day 0): 4.75 CFU/g | Log10 reduction from vehicle control ([4]; CD101 5 mg/kg IP Day 0): −0.98 CFU/g | Group Geometric mean (lung burden) ([4]; CD101 5 mg/kg IP Day −1): 3.75 × 10^4 CFU/g | Log10 Group Geometric mean (lung burden) ([4]; CD101 5 mg/kg IP Day −1): 4.57 CFU/g | Log10 reduction from vehicle control ([4]; CD101 5 mg/kg IP Day −1): −0.80 CFU/g | Group Geometric mean (lung burden) ([4]; CD101 5 mg/kg IP Day −3): 5.71 × 10^4 CFU/g | Log10 Group Geometric mean (lung burden) ([4]; CD101 5 mg/kg IP Day −3): 4.76 CFU/g | Log10 reduction from vehicle control ([4]; CD101 5 mg/kg IP Day −3): −0.98 CFU/g | Group Geometric mean (lung burden) ([4]; CD101 5 mg/kg IP Day −5): 6.36 × 10^4 CFU/g | Log10 Group Geometric mean (lung burden) ([4]; CD101 5 mg/kg IP Day −5): 4.80 CFU/g | Log10 reduction from vehicle control ([4]; CD101 5 mg/kg IP Day −5): −1.03 CFU/g | Group Geometric mean (lung burden) ([4]; CD101 10 mg/kg IP Day −1): 5.17 × 10^3 CFU/g | Log10 Group Geometric mean (lung burden) ([4]; CD101 10 mg/kg IP Day −1): 3.71 CFU/g | Log10 reduction from vehicle control ([4]; CD101 10 mg/kg IP Day −1): 0.06 CFU/g | Group Geometric mean (lung burden) ([4]; CD101 10 mg/kg IP Day −3): 7.34 × 10^3 CFU/g | Log10 Group Geometric mean (lung burden) ([4]; CD101 10 mg/kg IP Day −3): 3.87 CFU/g | Log10 reduction from vehicle control ([4]; CD101 10 mg/kg IP Day −3): −0.09 CFU/g | Group Geometric mean (lung burden) ([4]; CD101 10 mg/kg IP Day −5): 3.40 × 10^4 CFU/g | Log10 Group Geometric mean (lung burden) ([4]; CD101 10 mg/kg IP Day −5): 4.53 CFU/g | Log10 reduction from vehicle control ([4]; CD101 10 mg/kg IP Day −5): −0.76 CFU/g | Group Geometric mean (lung burden) ([4]; CD101 20 mg/kg IP Day −1): 1.12 × 10^4 CFU/g | Log10 Group Geometric mean (lung burden) ([4]; CD101 20 mg/kg IP Day −1): 4.05 CFU/g | Log10 reduction from vehicle control ([4]; CD101 20 mg/kg IP Day −1): −0.28 CFU/g | Group Geometric mean (lung burden) ([4]; CD101 20 mg/kg IP Day −3): 4.92 × 10^4 CFU/g | Log10 Group Geometric mean (lung burden) ([4]; CD101 20 mg/kg IP Day −3): 4.69 CFU/g | Log10 reduction from vehicle control ([4]; CD101 20 mg/kg IP Day −3): −0.92 CFU/g | Group Geometric mean (lung burden) ([4]; CD101 20 mg/kg IP Day −5): 8.35 × 10^3 CFU/g | Log10 Group Geometric mean (lung burden) ([4]; CD101 20 mg/kg IP Day −5): 3.92 CFU/g | Log10 reduction from vehicle control ([4]; CD101 20 mg/kg IP Day −5): −0.15 CFU/g | MEC50 [5]: 0.015 µg/mL | MEC90 [5]: 0.015 µg/mL | MEC range [5]: ≤0.0078 to 0.03 µg/mL | human equivalent doses at which Pneumocystis pneumonia was prevented in mice (Pneumocystis spp.): < 50 mg | Kp ([6]; liver, kidney, lung, spleen, read-out: tissue/plasma exposure ratios): ~4 | half-life ([6]; plasma, read-out: t1/2 in plasma (converted)): 39 h | half-life ([6]; tissues (all tissues studied), read-out: t1/2 in all tissues studied): 40 to 77 h | survival compared to vehicle (A. fumigatus ATCC 13073; CD101 IV/IP 0.2, 1, or 5 mg/kg BID×5d): significant increase in survival compared to vehicle | survival (A. fumigatus ATCC 13073; single 2 mg/kg vs 0.2 mg/kg BID×5d): Survival was comparable | survival rate (A. fumigatus AF293 [7]; CD101 20 mg/kg IP single dose 1 day prior to infection, 10 days): 30% | survival (A. fumigatus AF293 [7]; single CD101 dose (IP; 5, 10, 20 mg/kg) one day prior to infection): dose-dependent increase in survival rate | Group Geometric mean (lung burden) (A. fumigatus AF293 [8]; CD101 20 mg/kg IP Day −1): 4.37 × 10^3 CFU/g | Log10 Group Geometric mean (lung burden) (A. fumigatus AF293 [8]; CD101 20 mg/kg IP Day −1): 3.64 CFU/g | Log10 reduction from vehicle control (A. fumigatus AF293 [8]; CD101 20 mg/kg IP Day −1): 0.53 CFU/g | Group Geometric mean (lung burden) (A. fumigatus AF293 [8]; CD101 60 mg/kg IP Day −1): 1.38 × 10^4 CFU/g | Log10 Group Geometric mean (lung burden) (A. fumigatus AF293 [8]; CD101 60 mg/kg IP Day −1): 4.14 CFU/g | Log10 reduction from vehicle control (A. fumigatus AF293 [8]; CD101 60 mg/kg IP Day −1): 0.03 CFU/g | survival time post infection, range (A. fumigatus AF293 [9]; CD101 20 mg/kg IP once): 70 to 240 h | Mean Survival (A. fumigatus AF293 [9]; [11]): 130.4 h | Median Survival (A. fumigatus AF293 [9]; [11]): 74.7 h | mice surviving to the end of the study (A. fumigatus AF293 [9]; CD101 20 mg/kg IP): Two mice survived to the end of the study | survival time post infection, range (A. fumigatus AF293 [9]; CD101 60 mg/kg IP once): 73-240 | Mean Survival (A. fumigatus AF293 [9]; [12]): 122.7 h | Median Survival (A. fumigatus AF293 [9]; [12]): 88.7 h | mice surviving to the end of the study (A. fumigatus AF293 [9]; CD101 60 mg/kg IP): A single mouse survived to the end of the study | survival (A. fumigatus AF293 [9]; CD101 20 and 60 mg/kg once one day pre-infection): slight increase in survival | clearance of kidney CFU ([10]; CD101 SC 10 mg/kg at Day −3 and Day −1): Complete clearance was observed in all animals | clearance of kidney CFU ([10]; CD101 SC 20 mg/kg on Day −3): all but one animal | kidney CFU burden ([10]; CD101 SC 20 mg/kg, Day −5, −3 or −1): reduced CFU burden regardless of prophylactic treatment day | kidney CFU ([10]; CD101 SC 5 or 10 mg/kg at Day −3 and Day −1): significant decrease in CFU
